These results are taken from patent US10745384B2, “Indazole derivatives as αv integrin antagonists” (BRISTOL-MYERS SQUIBB COMPANY, priority 2016, dated 2020).

The target in the assay is T1, human αVβ6 (Homo sapiens, UniProt P06756+P18564).
T1 construct: purchased R & D systems 3817-AV
The experiment in a line: human αVβ6 HTRF binding assay. To be noted: recombinant human αVβ6 integrin, FITC-conjugated fibronectin. As for the experimental part:
All binding assays used the HTRF (homogeneous time resolved fluorescence) technology from Cisbio International, therefore all assays are described as HTRF binding assays. The assay results for the Examples are listed above together with the characterization data. The HTRF binding assays are established for the following integrins: human αVβ6, human αVβ1, human αVβ3, human αVβ5, and human αVβ8. All assays used the following assay buffer: 20 mM Tris, pH 7.4, 1 mM MgCl2, 1 mM MnCl2, 0.01% Tween 20, and 0.01% BSA. Alternatively, a SPA-based assay was used for evaluation of receptor binding.
The following describes the components and a representative procedure for the human αVβ6 HTRF binding assay: Recombinant human αVβ6 Integrin (R & D systems, 3817-AV) was biotinylated. Biotinylated human αVβ6 Integrin was added to assay vessel at a final concentration of 1.25 nM. FITC-conjugated fibronectin (Cytoskeleton, FNR02) was then added at the final concentration of 5 nM. The mixture was centrifuged at 600 rpm for three minutes using Thermo Fisher Heraeus Multifuge X3 centrifuge and then incubated at room temperature for an hour. Streptavidin Terbium (Cisbio international 610STLB) was then added at the final concentration of 0.625 nM. The resulting mixture was centrifuged at 600 rpm for three minutes using Thermo Fisher Heraeus Multifuge X3 centrifuge and then incubated at room temperature overnight in dark before reading HTRF signals. […]
In general terms: Time-resolved FRET reads energy transfer from a long-lived donor to a nearby acceptor.

T1 sequence (P06756 31-992 limits assumed): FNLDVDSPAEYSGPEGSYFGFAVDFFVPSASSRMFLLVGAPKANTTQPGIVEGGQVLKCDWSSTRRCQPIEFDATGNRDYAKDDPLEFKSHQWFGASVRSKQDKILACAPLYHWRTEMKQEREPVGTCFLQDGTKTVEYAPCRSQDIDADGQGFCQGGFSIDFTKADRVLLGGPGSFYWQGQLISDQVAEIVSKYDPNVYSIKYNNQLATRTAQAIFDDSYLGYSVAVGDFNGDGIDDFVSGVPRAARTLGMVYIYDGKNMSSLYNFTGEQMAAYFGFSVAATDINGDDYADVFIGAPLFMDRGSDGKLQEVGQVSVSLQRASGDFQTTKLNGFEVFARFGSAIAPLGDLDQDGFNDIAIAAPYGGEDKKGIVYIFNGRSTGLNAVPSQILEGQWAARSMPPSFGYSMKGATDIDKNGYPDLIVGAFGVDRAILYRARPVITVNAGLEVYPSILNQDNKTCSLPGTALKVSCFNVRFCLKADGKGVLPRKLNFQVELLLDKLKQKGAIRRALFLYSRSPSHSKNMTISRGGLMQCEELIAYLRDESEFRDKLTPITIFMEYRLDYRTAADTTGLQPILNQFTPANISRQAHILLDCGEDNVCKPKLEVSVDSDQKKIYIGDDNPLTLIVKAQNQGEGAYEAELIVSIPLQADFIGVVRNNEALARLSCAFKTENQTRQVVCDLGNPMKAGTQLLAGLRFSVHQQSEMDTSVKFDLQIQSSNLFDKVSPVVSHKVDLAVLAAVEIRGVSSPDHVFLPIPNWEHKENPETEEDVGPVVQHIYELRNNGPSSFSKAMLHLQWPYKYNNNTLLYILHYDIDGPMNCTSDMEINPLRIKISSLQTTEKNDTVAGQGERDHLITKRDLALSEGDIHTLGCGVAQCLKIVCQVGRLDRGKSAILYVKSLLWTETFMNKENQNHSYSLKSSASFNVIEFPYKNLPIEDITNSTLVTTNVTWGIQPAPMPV
T1 sequence (P18564 22-707 limits assumed): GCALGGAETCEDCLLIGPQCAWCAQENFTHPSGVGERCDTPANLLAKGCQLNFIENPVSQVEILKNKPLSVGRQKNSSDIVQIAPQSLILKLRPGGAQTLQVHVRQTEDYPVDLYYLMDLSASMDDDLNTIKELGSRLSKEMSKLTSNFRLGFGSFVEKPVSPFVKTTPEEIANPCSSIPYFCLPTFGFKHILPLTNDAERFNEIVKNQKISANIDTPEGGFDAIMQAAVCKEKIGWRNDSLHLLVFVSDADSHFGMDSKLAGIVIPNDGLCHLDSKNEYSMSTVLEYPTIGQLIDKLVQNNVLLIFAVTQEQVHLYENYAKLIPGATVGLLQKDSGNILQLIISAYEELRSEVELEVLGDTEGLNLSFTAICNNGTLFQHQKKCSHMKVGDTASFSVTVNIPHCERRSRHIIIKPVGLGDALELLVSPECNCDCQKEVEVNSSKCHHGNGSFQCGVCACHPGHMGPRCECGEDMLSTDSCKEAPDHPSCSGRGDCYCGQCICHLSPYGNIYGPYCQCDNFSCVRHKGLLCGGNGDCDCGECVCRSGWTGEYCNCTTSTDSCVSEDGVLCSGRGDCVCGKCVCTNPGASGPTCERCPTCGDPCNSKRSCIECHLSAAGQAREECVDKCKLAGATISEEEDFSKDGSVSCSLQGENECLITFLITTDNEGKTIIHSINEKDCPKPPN

Consider `Cc1ncc([C@@H](CC(=O)O)n2ncc3cc(OCCc4ccc5c(n4)N[C@H](C)CC5)ccc32)cn1` (single isomer, unassigned) [Example 175], for which the IC50 came to 6000 nM.
Then `Cc1ncc([C@H](CC(=O)O)n2ncc3cc(OCCc4ccc5c(n4)N[C@H](C)CC5)ccc32)cn1` (single isomer, unassigned) [Example 176], with 33 nM; and `Cc1ncc([C@@H](CC(=O)O)n2ncc3cc(OCCc4ccc5c(n4)N[C@@H](C)CC5)ccc32)cn1` (single isomer, unassigned) [Example 177], with 5000 nM.
Regarding `Cc1ncc([C@H](CC(=O)O)n2ncc3cc(OCCc4ccc5c(n4)N[C@@H](C)CC5)ccc32)cn1` (single isomer, unassigned) [Example 178], the IC50 was found to be 110 nM.
Then `COc1ccc(C(CC(=O)O)n2ncc3c(CCCc4ccc5c(n4)NCCC5)cccc32)cn1` (stereo not drawn) [Example 1, 3-(6-Methoxypyridin-3-yl)-3-(4-(3-(5,6,7,8-tetrahydro-1,8-naphthyridin-2-yl)propyl)-1H-indazol-1-yl)propanoic acid], with 1600 nM; and `COc1ccc(C(CC(=O)O)n2ncc3cc(CCc4ccc5c(n4)NCCC5)ccc32)cn1` (stereo not drawn) [Example 2, 3-(6-Methoxypyridin-3-yl)-3-(5-(2-(5,6,7,8-tetrahydro-1,8-naphthyridin-2-yl)ethyl)-1H-indazol-1-yl)propanoic acid], with 110 nM.
Then `COc1ccc(C(CC(=O)O)n2ncc3c(OCCc4ccc5c(n4)NCCC5)cccc32)cn1` (stereo not drawn) [Example 3, 3-(6-Methoxypyridin-3-yl)-3-(4-(2-(5,6,7,8-tetrahydro-1,8-naphthyridin-2-yl)ethoxy)-1H-indazol-1-yl)propanoic acid], with 2300 nM; and `O=C(N[C@@H](Cn1cc2cc(OCCc3ccc4c(n3)NCCC4)ccc2n1)C(=O)O)OCc1ccccc1` [Example 4, (S)-2-(((Benzyloxy)carbonyl)amino)-3-(5-(2-(5,6,7,8-tetrahydro-1,8-naphthyridin-2-yl)ethoxy)-2H-indazol-2-yl)propanoic acid], with 21 nM; and `O=C(O)CC(c1ccccc1)n1ncc2cc(OCCCc3ccc4c(n3)NCCC4)ccc21` (stereo not drawn) [Example 5, 3-Phenyl-3-(5-(3-(5,6,7,8-tetrahydro-1,8-naphthyridin-2-yl)propoxy)-1H-indazol-1-yl)propanoic acid], with 440 nM.
Consider `COc1ccc([C@H](CC(=O)O)n2cc3cc(OCCc4ccc5c(n4)NCCC5)ccc3n2)cn1` [Example 6, (S)-3-(6-Methoxypyridin-3-yl)-3-(5-(2-(5,6,7,8-tetrahydro-1,8-naphthyridin-2-yl)ethoxy)-2H-indazol-2-yl)propanoic acid], for which the IC50 was found to be 600 nM.
Regarding `COc1ccc([C@H](CC(=O)O)n2cc3ccc(CCc4ccc5c(n4)NCCC5)cc3n2)cn1` [Example 7, (S)-3-(6-Methoxypyridin-3-yl)-3-(6-(2-(5,6,7,8-tetrahydro-1,8-naphthyridin-2-yl)ethyl)-2H-indazol-2-yl)propanoic acid], the IC50 was determined as 6.6 nM.
Then `COc1ccc([C@H](CC(=O)O)n2cc3ccc(Cc4cc5c(nc4C)NCCC5)cc3n2)cn1` [Example 8, (S)-3-(6-Methoxypyridin-3-yl)-3-(6-((2-methyl-5,6,7,8-tetrahydro-1,8-naphthyridin-3-yl)methyl)-2H-indazol-2-yl)propanoic acid], with 390 nM.
`COc1ccc([C@H](CC(=O)O)n2cc3ccc(CCCc4ccc5c(n4)NCCC5)cc3n2)cn1` [Example 9, (S)-3-(6-Methoxypyridin-3-yl)-3-(6-(3-(5,6,7,8-tetrahydro-1,8-naphthyridin-2-yl)propyl)-2H-indazol-2-yl)propanoic acid]: the IC50 came out at 2.6 nM.
The figure for `COc1ccc([C@H](CC(=O)O)n2cc3ccc(CCc4cc5c(nc4C)NCCC5)cc3n2)cn1` [Example 10, (S)-3-(6-Methoxypyridin-3-yl)-3-(6-(2-(2-methyl-5,6,7,8-tetrahydro-1,8-naphthyridin-3-yl)ethyl)-2H-indazol-2-yl)propanoic acid] is 160 nM; for `COc1ccc(C(CC(=O)O)n2ncc3nc(OCCc4ccc5c(n4)NCCC5)ccc32)cn1` (stereo not drawn) [Example 11, 3-(6-Methoxypyridin-3-yl)-3-(5-(2-(5,6,7,8-tetrahydro-1,8-naphthyridin-2-yl)ethoxy)pyrazolo[4,3-b]pyridin-1-yl)propanoic acid] it is 120 nM.
The figure for `COc1ccc(C(CC(=O)O)n2ncc3cc(OCCNC4=NCCN4)ccc32)cn1` (stereo not drawn) [Example 12, 3-(5-(2-((4,5-Dihydroimidazol-2-yl)amino)ethoxy)-1H-indazol-1-yl)-3-(6-methoxypyridin-3-yl)propanoic acid] is 2000 nM; for `Cc1cc(C)c(S(=O)(=O)NC(Cn2ncc3cc(OCCc4ccc5c(n4)NCCC5)ccc32)C(=O)O)c(C)c1` (stereo not drawn) [Example 13, 3-(5-(2-(5,6,7,8-Tetrahydro-1,8-naphthyridin-2-yl)ethoxy)-1H-indazol-1-yl)-2-((2,4,6-trimethylphenyl)sulfonamido)propanoic acid] it is 320 nM.
The figure for `O=C(NC(Cn1ncc2cc(OCCc3ccc4c(n3)NCCC4)ccc21)C(=O)O)OCc1ccccc1` (stereo not drawn) [Example 14, 2-(((Benzyloxy)carbonyl)amino)-3-(5-(2-(5,6,7,8-tetrahydro-1,8-naphthyridin-2-yl)ethoxy)-1H-indazol-1-yl)propanoic acid] is 300 nM; for `O=C(O)C[C@H](c1cnc2ccccc2n1)n1ncc2cc(OCCc3ccc4c(n3)NCCC4)ccc21` [Example 16, (R)-3-(Quinoxalin-2-yl)-3-(5-(2-(5,6,7,8-tetrahydro-1,8-naphthyridin-2-yl)ethoxy)-1H-indazol-1-yl)propanoic acid] it is 137 nM; for `O=C(O)CC(c1cc(Cl)cc(Cl)c1)n1ncc2c(CCCc3ccc4c(n3)NCCC4)cccc21` (stereo not drawn) [Example 18, 3-(3,5-Dichlorophenyl)-3-(4-(3-(5,6,7,8-tetrahydro-1,8-naphthyridin-2-yl)propyl)-1H-indazol-1-yl)propanoic acid] it is 2700 nM.
On to `O=C(O)CC(c1cnc2ccccc2n1)n1ncc2c(CCCc3ccc4c(n3)NCCC4)cccc21` (stereo not drawn) [Example 19, 3-(Quinoxalin-2-yl)-3-(4-(3-(5,6,7,8-tetrahydro-1,8-naphthyridin-2-yl)propyl)-1H-indazol-1-yl)propanoic acid], for which the IC50 was determined as 220 nM.
The figure for `COc1ccc(C(CC(=O)O)n2ncc3cc(CCCc4ccc5c(n4)NCCC5)ccc32)cn1` (stereo not drawn) [Example 20, 3-(6-Methoxypyridin-3-yl)-3-(5-(3-(5,6,7,8-tetrahydro-1,8-naphthyridin-2-yl)propyl)-1H-indazol-1-yl)propanoic acid] is 70 nM.
Then `O=C(O)CC(c1cc(Cl)cc(Cl)c1)n1ncc2cc(CCCc3ccc4c(n3)NCCC4)ccc21` (stereo not drawn) [Example 21, 3-(3,5-Dichlorophenyl)-3-(5-(3-(5,6,7,8-tetrahydro-1,8-naphthyridin-2-yl)propyl)-1H-indazol-1-yl)propanoic acid], with 44 nM; and `O=C(O)CC(c1cnc2ccccc2n1)n1ncc2cc(CCCc3ccc4c(n3)NCCC4)ccc21` (stereo not drawn) [Example 22, 3-(Quinoxalin-2-yl)-3-(5-(3-(5,6,7,8-tetrahydro-1,8-naphthyridin-2-yl)propyl)-1H-indazol-1-yl)propanoic acid], with 190 nM.
Then `CN(C)C(=O)c1cccc(C(CC(=O)O)n2ncc3cc(CCCc4ccc5c(n4)NCCC5)ccc32)c1` (stereo not drawn) [Example 23, 3-(3-(Dimethylcarbamoyl)phenyl)-3-(5-(3-(5,6,7,8-tetrahydro-1,8-naphthyridin-2-yl)propyl)-1H-indazol-1-yl)propanoic acid], with 61 nM.
On to `CN(C)C(=O)c1cccc(C(CC(=O)O)n2ncc3cc(CCc4ccc5c(n4)NCCC5)ccc32)c1` (stereo not drawn) [Example 24, 3-(3-(Dimethylcarbamoyl)phenyl)-3-(5-(2-(5,6,7,8-tetrahydro-1,8-naphthyridin-2-yl)ethyl)-1H-indazol-1-yl)propanoic acid], for which the IC50 came out at 130 nM.
On to `O=C(O)CC(c1ccc2c(c1)oc1ccccc12)n1ncc2cc(CCc3ccc4c(n3)NCCC4)ccc21` (stereo not drawn) [Example 25, 3-(Dibenzo[b,d]furan-3-yl)-3-(5-(2-(5,6,7,8-tetrahydro-1,8-naphthyridin-2-yl)ethyl)-1H-indazol-1-yl)propanoic acid], for which the concentration for half-maximal inhibition (IC50) is 530 nM.
The figure for `CN(C)Cc1cccc(C(CC(=O)O)n2ncc3cc(CCc4ccc5c(n4)NCCC5)ccc32)c1` (stereo not drawn) [Example 26, 3-(3-((Dimethylamino)methyl)phenyl)-3-(5-(2-(5,6,7,8-tetrahydro-1,8-naphthyridin-2-yl)ethyl)-1H-indazol-1-yl)propanoic acid] is 120 nM.
Turning to `O=C(O)CC(c1cnc2ccccc2n1)n1ncc2cc(CCc3ccc4c(n3)NCCC4)ccc21` (stereo not drawn) [Example 27, 3-(Quinoxalin-2-yl)-3-(5-(2-(5,6,7,8-tetrahydro-1,8-naphthyridin-2-yl)ethyl)-1H-indazol-1-yl)propanoic acid], the IC50 stood at 240 nM.
The figure for `O=C(O)CC(c1cc(Cl)cc(Cl)c1)n1ncc2cc(CCc3ccc4c(n3)NCCC4)ccc21` (stereo not drawn) [Example 28, 3-(3,5-Dichlorophenyl)-3-(5-(2-(5,6,7,8-tetrahydro-1,8-naphthyridin-2-yl)ethyl)-1H-indazol-1-yl)propanoic acid] is 210 nM.

A word on the IC50: it is the concentration that gives 50% inhibition.
